Assays:
[1] = molecular target: T1, TRPV4 (transient receptor potential vanilloid 4) (Mus musculus, UniProt Q9EPK8); assay: Calcium influx; format: cell-based
[2] = molecular target: T1, TRPV4 (transient receptor potential vanilloid 4); assay: Inhibition of GSK1016790A-induced calcium influx; format: cell-based

T1 sequence (Q9EPK8 whole entry): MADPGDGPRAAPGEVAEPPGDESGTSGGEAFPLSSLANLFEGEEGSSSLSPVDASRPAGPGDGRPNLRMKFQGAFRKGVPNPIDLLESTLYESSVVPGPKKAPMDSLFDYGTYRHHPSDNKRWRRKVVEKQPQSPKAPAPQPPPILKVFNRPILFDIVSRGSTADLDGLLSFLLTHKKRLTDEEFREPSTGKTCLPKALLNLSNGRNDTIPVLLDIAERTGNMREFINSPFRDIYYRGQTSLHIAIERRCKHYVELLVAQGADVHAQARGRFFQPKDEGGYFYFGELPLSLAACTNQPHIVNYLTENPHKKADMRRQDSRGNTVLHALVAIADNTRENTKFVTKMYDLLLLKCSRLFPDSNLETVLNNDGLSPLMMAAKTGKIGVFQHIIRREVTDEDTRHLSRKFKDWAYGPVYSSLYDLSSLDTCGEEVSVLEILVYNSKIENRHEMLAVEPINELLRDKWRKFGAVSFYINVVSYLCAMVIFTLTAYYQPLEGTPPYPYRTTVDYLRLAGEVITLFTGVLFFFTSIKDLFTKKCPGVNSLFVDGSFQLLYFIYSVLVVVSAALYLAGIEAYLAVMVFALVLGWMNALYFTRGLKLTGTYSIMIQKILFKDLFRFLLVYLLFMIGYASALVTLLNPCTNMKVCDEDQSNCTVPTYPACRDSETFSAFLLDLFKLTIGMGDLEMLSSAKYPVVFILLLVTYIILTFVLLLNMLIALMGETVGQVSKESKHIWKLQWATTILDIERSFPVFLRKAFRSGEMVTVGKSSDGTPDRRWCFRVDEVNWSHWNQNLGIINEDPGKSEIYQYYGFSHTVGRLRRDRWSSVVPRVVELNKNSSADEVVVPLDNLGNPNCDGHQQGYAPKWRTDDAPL

SMILES | EC50 [1] [µM] | IC50 [2] [µM]
CC(C)C[C@H](NC(=O)c1cc2ccccc2s1)C(=O)N1CCN(C(=O)[C@H](CO)NS(=O)(=O)c2ccc(Cl)cc2Cl)CC1 [GSK, GSK1016790A] | 0.05 | 
Cc1c(C(=O)Nc2cccc(C(F)(F)F)c2)cc(-c2ccccc2)n1CCCN1CCOCC1 [HC, HC067047] |  | 7

— article PMC4684994 (Journal of immunology (Baltimore, Md. : 1950), 2015)
